Data taken from patent US20080161232A1, “C5a Receptor Antagonist” (JERINI AG, priority 2005, published 2008).
Positions of bridges follow the written chain, without caps; N, C: chain ends. Non-standard residues stand in square brackets, D forms with d. Residues, ends and D or L forms follow the SMILES beside them. *: point of attachment. Bta = N[C@@H](Cc1csc2ccccc12)C(=O)O; Hydrocinnamoyl = O=C(CCc1ccccc1)*; dCha = N[C@H](CC1CCCCC1)C(=O)O; AllylGly = C=CC[C@H](N)C(=O)O; Pip = O=C(O)[C@@H]1CCCCN1; Nle = CCCC[C@H](N)C(=O)O; Orn = NCCC[C@H](N)C(=O)O

T1: human C5aR(CD88) (Homo sapiens, UniProt P21730)
T1 construct: expressed in transfected cells; host or cells: rat basophilic leukemia cells (RBL)
T1 sequence (P21730 1-350): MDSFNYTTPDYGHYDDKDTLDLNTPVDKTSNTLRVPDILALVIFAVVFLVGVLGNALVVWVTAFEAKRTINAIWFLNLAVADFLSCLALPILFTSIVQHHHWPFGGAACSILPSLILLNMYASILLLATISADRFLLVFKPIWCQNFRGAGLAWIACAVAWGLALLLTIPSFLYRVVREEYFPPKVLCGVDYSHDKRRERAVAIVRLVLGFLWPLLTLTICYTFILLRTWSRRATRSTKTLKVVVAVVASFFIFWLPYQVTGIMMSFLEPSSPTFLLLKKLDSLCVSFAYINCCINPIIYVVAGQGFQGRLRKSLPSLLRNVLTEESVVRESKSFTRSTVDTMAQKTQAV


Tests used:
human C5aR(CD88) [1] = target: T1, human C5aR(CD88); assay: Determination of the IC50 value in an enzyme release assay (functional assay, antagonistic activity); assay type: cell-based; details: for IC50: antagonistic activity, IC50 group in enzyme release assay, RBL cells expressing human C5aR(CD88), read-out: activity (group); for inhibitory activity (in words): functional assay of example 11, noteworthy = IC50 less than 200 nM
human C5aR(CD88) [2] = target: T1, human C5aR(CD88); assay: Determination of EC50-values in an enzyme release assay (agonistic activity); assay type: cell-based; details: for EC50: agonistic activity, no C5a added, read-out: EC50; for agonistic activity (in words): cellular assay, up to a concentration of at least 1430 nM
Protocol: The assay procedure was described by Kohl (Kohl 1997 The Anaphylatoxins. In: Dodds, A. W., Sim, R. B. (Eds.), Complement: A Practical Approach. Oxford, pp. 135-163). Basophilic leukemia cells from rats (RBL), which express the human C5aR(CD88), were cultivated in DMEM with 10% fetal bovine serum, 100 U/ml penicillin, 100 μg/ml streptomycin and 2 mM glutamine (all components of the media from Biochrome, Berlin) to confluence at 37° C. and 10% CO2. The following specifications refer to single cell culture flask having a surface of 75 cm^2. Medium was decanted from cells. Cells were washed with 10 ml PBS (Dulbecco's PBS, Biochrome) and subsequently overlayed with 3 ml Cell Dissociation Solution (CDS, Sigma). Cells were incubated for 1 min at room temperature. Subsequently, CDS was removed and the cells were further incubated for 10-15 min at 37° C. for dissociation. In the assay, 20 μl of the solution containing the compound to be tested were used. This solution should not contain more than 2.8% DMSO. For the dilution process, the compounds were diluted in ⅓ or ½ steps. To 20 μl compound solution 75 μl of the RBL-cells were added, which were treated as follows: after dissociation cells were detached and warmed at 37° C. in 10 ml HAG-CM (20 mM HEPES; 125 mM NaCl, 5 mM KCl, 1 mM CaCl2, 1 mM MgCl2, 0,5 mM Glucose, 0,25% BSA. HEPES-preparation: 2.3 g/l HEPES-salt +2.66 g/l HEPES acid). Cells were counted and centrifuged (200×g, 10 min). The cell pellet was resuspended in preheated HAG-CM (i.e. Hepes-buffer NaCl-glucose-solution with calcium and magnesium), and the cell density was adjusted to 2×10^6 cells/ml. The cells were incubated at 37° C. for 5 min. Per ml cell suspension 27 μl of a cytochalasin B-solution were added (100 μg/ml in DMSO, Sigma). The cells were incubated for further 3 min at 37° C. 75 μl of the cell suspension were added to 20 μl compound solution leading to a volume of 95 μl per well. After incubation of the cells for 10 min at 37° C. 10 μl hrC5a (10.5 nM in HAG-CM, Sigma) per well were added. The cells were incubated for additional 5 min at 37° C. The mtp was then transferred to ice and centrifuged for 3 min at 4° C. with 1200×g. 75 μl of the supernatant were added to 100 μl substrate-solution (2.7 mg/ml p-nitrophenyl-N-acetyl-β-D-glucosaminide (Sigma) in 42.5 mM Na-acetate pH 4.5). The mtp was incubated for further 60 min at 37° C. 75 μl 0.4 M glycine pH 10.4 were added per well. The mtp was transferred into a reader and the absorption at 405 nm was measured. IC50-values were obtained following the equation; y=((A-D)/(1+(x/C)^B))+D.
Determination of EC50-Values in an Enzyme Release Assay
The determination of EC50-values was performed according to the procedure given in example II, with the exception that 30 μl of the test compound need to be mixed with 75 μl of the cell suspension mentioned in example 11. Neither preincubation nor addition of C5a for stimulation of enzyme release is needed.

Molecule	IC50 (human C5aR(CD88) [1])	inhibitory activity (in words) (human C5aR(CD88) [1])	EC50 (human C5aR(CD88) [2])	agonistic activity (in words) (human C5aR(CD88) [2])	inhibitory activity (in words) (human C5aR(CD88) [1]; listed as Ac-Phe-[Orn-Pro-cha-Trp-Eaf])
CCCC[C@@H]1NC(=O)[C@H](Cc2c[nH]c3ccccc23)NC(=O)[C@@H](CC2CCCCC2)NC(=O)[C@@H]2CCCN2C(=O)[C@@H](NC(=O)[C@H](Cc2ccccc2)NC(=O)CON=CC(O)C(O)C(O)C(O)CO)CCCNC1=O (single isomer, unassigned) [Compound 3, HOCH2(CHOH)4—C═N—O—CH2—CO-Phe-[Orn-Pro-cha-Trp-Nle]]	50 to 200 nM	noteworthy inhibitory activity	> 1430 nM	pure antagonists	
CC(=O)N[C@@H](Cc1ccccc1)C(=O)N[C@@H](CCCN)C(=O)N[C@H](CC1CCCCC1)C(=O)N[C@H](CC1CCCCC1)C(=O)N[C@@H](Cc1csc2ccccc12)C(=O)N[C@@H](Cc1ccccc1)C(N)=O [Ac-Phe-Orn-cha-cha-Bta-Phe-NH2] (Ac-F[Orn][dCha][dCha][Bta]F-NH2)				pure antagonists	
C=CC[C@@H]1NC(=O)[C@H](Cc2c[nH]c3ccccc23)NC(=O)[C@@H](CC2CCCCC2)NC(=O)[C@@H]2CCCN2C(=O)[C@@H](NC(=O)[C@H](Cc2ccccc2)NC(C)=O)CCCNC1=O [Compound 33, Ac-Phe-[Orn-Pro-cha-Trp-Eaf]] (Ac-F[Orn]P[dCha]W[AllylGly]; lactam 2-C)	5 to 10 nM	without significant loss of activity	> 1430 nM	pure antagonists	noteworthy inhibitory activity
CCCC[C@@H]1NC(=O)[C@H](Cc2c[nH]c3ccccc23)NC(=O)[C@@H](CC2CCCCC2)NC(=O)[C@@H]2CCCN2C(=O)[C@@H](NC(=O)CCc2ccccc2)CCCNC1=O [Compound 41, Ph-CH2—CH2—CO-[Orn-Pro-cha-Trp-Nle]] (Hydrocinnamoyl-[Orn]P[dCha]W[Nle]; lactam 1-C)	10 to 20 nM	noteworthy inhibitory activity	> 1430 nM	pure antagonists	
CCCC[C@@H]1NC(=O)[C@H](Cc2c[nH]c3ccccc23)NC(=O)[C@@H](CC2CCCCC2)NC(=O)[C@H](CO)NC(=O)[C@@H](NC(=O)[C@@H](N)Cc2ccccc2)CCCNC1=O [Compound 44, H-Phe-[Orn-Ser-cha-Trp-Nle]] (H-F[Orn]S[dCha]W[Nle]; lactam 2-C)				pure antagonists	
CC(=O)N[C@@H](Cc1ccccc1)C(=O)N[C@@H](CCCN)C(=O)N1CCCC[C@H]1C(=O)N[C@H](CC1CCCCC1)C(=O)N[C@@H](Cc1c[nH]c2ccccc12)C(=O)N[C@@H](Cc1ccccc1)C(N)=O [Compound 55, Ac-Phe-Orn-Pip-cha-Trp-Phe-NH2] (Ac-F[Orn][Pip][dCha]WF-NH2)	20 to 50 nM		> 100000 nM	pure antagonists	

Second part, the molecule after the results:

IC50 (human C5aR(CD88) [1])	inhibitory activity (in words) (human C5aR(CD88) [1])	EC50 (human C5aR(CD88) [2])	agonistic activity (in words) (human C5aR(CD88) [2])	inhibitory activity (in words) (human C5aR(CD88) [1]; listed as Ac-Phe-[Orn-Pro-cha-Trp-Eaf])	Molecule
		> 100000 nM	pure antagonists		CC(=O)N[C@@H](Cc1ccccc1)C(=O)N[C@@H](CCCN)C(=O)N1CCC[C@H]1C(=O)N[C@H](CC1CCCCC1)C(=O)N[C@@H](Cc1c[nH]c2ccccc12)C(=O)N[C@@H](Cc1ccccc1)C(N)=O [Compound 61, Ac-Phe-Orn-Pro-cha-Trp-Phe-NH2] (Ac-F[Orn]P[dCha]WF-NH2)
			pure antagonists		N[C@@H](Cc1ccccc1)C(=O)N[C@H]1CCCNC(=O)[C@H](Cc2ccccc2)NC(=O)[C@H](Cc2c[nH]c3ccccc23)NC(=O)[C@@H](CC2CCCCC2)NC(=O)[C@@H]2CCCN2C1=O [H-Phe-[Orn-Pro-cha-Trp-Phe]] (H-F[Orn]P[dCha]WF; lactam 2-C)
		2.4 nM			hrC5a: hrC5a (Sigma), added for stimulation of enzyme release (protein, UniProt P01031 678-751, looked up, C5a anaphylatoxin, hrC5a (Sigma), added for stimulation of enzyme release) C5a anaphylatoxin: TLQKKIEEIAAKYKHSVVKKCCYDGACVNNDETCEQRAARISLGPRCIKAFTECCVVASQLRANISHKDMQLGR
